Biological target: T1, NPF1.3 (Arabidopsis thaliana, UniProt Q9LYD5)
T1 construct: full-length cDNA in pOO2-GW; cRNA expressed in Xenopus laevis oocytes
T1 sequence (Q9LYD5 1-481): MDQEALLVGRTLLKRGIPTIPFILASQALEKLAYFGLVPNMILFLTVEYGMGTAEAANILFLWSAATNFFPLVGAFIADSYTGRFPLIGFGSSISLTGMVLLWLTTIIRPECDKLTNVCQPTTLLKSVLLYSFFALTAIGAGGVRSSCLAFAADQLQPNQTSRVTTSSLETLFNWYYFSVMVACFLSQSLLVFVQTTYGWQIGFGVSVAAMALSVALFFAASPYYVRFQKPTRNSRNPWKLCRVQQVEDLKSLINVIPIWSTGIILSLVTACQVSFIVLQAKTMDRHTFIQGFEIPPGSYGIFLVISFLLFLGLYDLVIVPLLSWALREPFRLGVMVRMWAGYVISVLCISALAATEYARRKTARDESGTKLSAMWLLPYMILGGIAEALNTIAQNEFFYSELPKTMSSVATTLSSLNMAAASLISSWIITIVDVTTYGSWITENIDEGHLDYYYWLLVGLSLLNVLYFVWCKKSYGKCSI
Test: two-electrode voltage clamp, inward current in Xenopus oocytes
Format: cell-based
Conditions: 5 mM CsNO3 (Figure 5 legend, methods; text says KNO3); -120 mV

For O=[N+]([O-])O [nitrate], the “two-electrode voltage clamp, inward current in Xenopus oocytes” value was “the nitrate-dependent inward currents were observed by KNO3 in NPF1.3-injected oocytes”.
